Laboratory results taken from US9138434B2, “Octahydrothienoquinoline derivative, pharmaceutical composition comprising derivative, and use of these” (KISSEI PHARMACEUTICAL CO., LTD., priority 2011, dated 2015).

Tested on: unilateral 6-OHDA-lesioned hemi-Parkinsonian rats
Assay: Contralateral rotational behavior in unilateral 6-hydroxydopamine-lesioned hemi-parkinsonian rats
Format: in vivo, rat (male Sprague-Dawley)
Conditions: 10 mg/kg oral, fasted rats, observed up to 24 hours, mean; for Total number or rotations: contralateral rotations; for Duration: duration of contralateral rotation response
Description: 6-OHDA was dissolved at 2 mg/mL in a physiolosical saline solution containing 0.2% L-ascorbic acid. Desipramine was dissolved at 10 mg/mL in a physiolosical saline solution in a hot-water bath. Apomorphine was dissolved at 0.1 mg/mL in a physiolosical saline solution. […] Test compounds were dissolved in a solution containing 2% DMA, 100 or 200 mol % hydrochloric acid, and 98% of a 0.5% methyl cellulose solution. […] (Eur J Pharmacol, 2000, vol. 408, P. 249-255) with a minor modification. Male Sprague-Dawley rats (6-weeks-old, Charles River Laboratories Japan Inc.) were anaesthetized with intraperitoneal somnopentyl (45 mg/kg) injection and placed in a stereotaxic frame (Narishige). In order to prevent 6-OHDA-induced damage of noradrenergic neurons, desipramine (25 mg/kg) was intraperitoneally injected 30 minutes before the 6-OHDA injection. After the bregma identification via a middle calvarial incision, the skull was drilled using a dental drill at the site of 6-OHDA injection. The lesion was made by injecting 6-OHDA (8 μg in 4 μL at a speed of 1 μL/minute) unilaterally into the left medial forebrain bundle by using a injection cannula (30 gauge needle) connected to a microsyringe (Hamilton) (the lesion coordinates; A/P −2.5 mm, L/M −1.8 mm, and V/D −8.0 mm, from the bregma point and surface of the skull). The cannula was carefully removed from the animal after keeping placed on the lesion site for 5 minutes. The skull was filled its hole with dental cement, disinfected, and the scalp incision was surgically sutured. Animals recovered from anesthesia were housed as usual until the day of the experiment. 3) Determining of Contralateral Rotational Behavior Three weeks after the lesion, rats were tested on the basis of their contralateral rotational behavior (single rotation was defined as a 360° turn) in response to 0.1 mg/kg apomorphine given subcutaneously. For behavioral observation, rats were placed in plastic cylinders of a diameter of 30 cm, and its contralateral rotational behaviors were videotaped and quantified by rat-rotation auto counting system R-RACS (Kissei Wellcom). On the experimental day, animals were fasted overnight, and test compounds were orally administrated at doses of 10 mg/kg. […] Total number of rotations and the duration of the response in experimental period were presented as mean value.

CCCCN(C(=O)NCCN(C)C)C(=O)[C@@H]1C[C@@H]2Cc3c(sc(N)c3C#N)C[C@H]2N(C)C1 (relative stereo) [1-24, 1-{[(4aR*,6R*,8aR*)-2-amino-3-cyano-8-methyl-4H,4aH,5H,6H,7H,8H,8aH,9H-thieno[3,2-g]quinolin-6-yl]carbonyl}-1-butyl-3-[2-(dimethylamino)ethyl]urea]
Total number or rotations: 5230.0
Duration: 766.3 min

CC(C)CCN(C(=O)NCCN(C)C)C(=O)[C@@H]1C[C@@H]2Cc3c(sc(N)c3C#N)C[C@H]2N(C)C1 (relative stereo) [1-43, 1-{[(4aR*,6R*,8aR*)-2-amino-3-cyano-8-methyl-4H,4aH,5H,6H,7H,8H,8aH,9H-thieno[3,2-g]quinolin-6-yl]carbonyl}-3-[2-(dimethylamino)ethyl]-1-(3-methylbutyl)urea]
Total number or rotations: 7557.5
Duration: 843.8 min

CCCCN(C(=O)NCCN1CCCCC1)C(=O)[C@@H]1C[C@@H]2Cc3c(sc(N)c3C#N)C[C@H]2N(C)C1 (relative stereo) [1-46, 1-{[(4aR*,6R*,8aR*)-2-amino-3-cyano-8-methyl-4H,4aH,5H,6H,7H,8H,8aH,9H-thieno[3,2-g]quinolin-6-yl]carbonyl}-1-butyl-3-[2-(piperidin-1-yl)ethyl]urea]
Total number or rotations: 10329.8
Duration: 1158.8 min

CCCN(C(=O)NCCN(C)C)C(=O)[C@@H]1C[C@@H]2Cc3c(sc(N)c3C#N)C[C@H]2N(C)C1 [1-1, 1-{[(4aR,6R,8aR)-2-amino-3-cyano-8-methyl-4H,4aH,5H, 6H,7H,8H,8aH,9H-thieno[3,2-g]quinolin-6-yl]carbonyl}-3-[2-(dimethylamino)ethyl]-1-propylurea]
Total number or rotations: 9431.8
Duration: 1101.3 min

CCCCN(C(=O)NCCN(CC)CC)C(=O)[C@@H]1C[C@@H]2Cc3c(sc(N)c3C#N)C[C@H]2N(C)C1 [1-3, 1-{[(4aR,6R,8aR)-2-amino-3-cyano-8-methyl-4H,4aH,5H,6H,7H,8H,8aH,9H-thieno[3,2-g]quinolin-6-yl]carbonyl}-1-butyl-3-[2-(diethylamino)ethyl]urea]
Total number or rotations: 4478.3
Duration: 845.0 min

CCN(C(=O)NCC(C)(C)CN(C)C)C(=O)[C@@H]1C[C@@H]2Cc3c(sc(N)c3C#N)C[C@H]2N(C)C1 [1-4, 1-{[(4aR,6R,8aR)-2-amino-3-cyano-8-methyl-4H,4aH,5H,6H,7H,8H,8aH,9H-thieno[3,2-g]quinolin-6-yl]carbonyl}-3-[3-(dimethylamino)-2,2-dimethylpropyl]-1-ethlylurea]
Total number or rotations: 6338.8
Duration: 1131.3 min

CCN(C(=O)N[C@@H](C)CN(C)C)C(=O)[C@@H]1C[C@@H]2Cc3c(sc(N)c3C#N)C[C@H]2N(C)C1 [1-57, 1-{[(4aR,6R,8aR)-2-amino-3-cyano-8-methyl-4H,4aH,5H,6H, 7H,8H,8aH,9H-thieno[3,2-g]quinolin-6-yl]carbonyl}-3-[(2S)-1-(dimethylamino)propan-2-yl]-1-ethylurea]
Total number or rotations: 9976.5
Duration: 1190.0 min

CCN(C(=O)NCCN(C)C)C(=O)[C@@H]1C[C@@H]2Cc3c(sc(N)c3C#N)C[C@H]2N(C)C1 [1-108, 1-{[(4aR,6R,8aR)-2-amino-3-cyano-8-methyl-4H,4aH,5H,6H,7H,8H,8aH,9H-thieno[3,2-g]quinolin-6-yl]carbonyl}-3-[2-(dimethylamino)ethyl]-1-ethylurea]
Total number or rotations: 2577.5
Duration: 698.8 min

CCCN(CCC)CCc1cccc2c1CC(=O)N2 [Ropinirole, ropinirole, reference compound]
Total number or rotations: 276.3
Duration: 61.3 min
